Laboratory results taken from ChEMBL document CHEMBL4251696, “Discovery of a Stress-Activated Protein Kinase Inhibitor for Lymphatic Filariasis” (ACS Med Chem Lett, 2018).
Calls of active or inactive are those of the source. The rule behind the calls is not given here.

How the values were obtained:
Brugia malayi [1] = assay: Inhibition of recombinant Brugia malayi MPK1a at 1 uM using FAM-p38tide as substrate by IMAP assay relative to control
[2] = Inhibition of recombinant Brugia malayi MPK1a using FAM-p38tide as substrate by IMAP assay
[3] = Inhibition of sodium arsenate activated N-terminal GST-tagged Brugia malayi MPK1 expressed in HEK293F cells using FAM-p38tide as substrate by IMAP assay
[4] = target: Mitogen-activated protein kinase 14 (Homo sapiens, UniProt Q16539); assay: Inhibition of human p38alpha using FAM-p38tide as substrate by IMAP assay
Sequence of Mitogen-activated protein kinase 14 (Q16539 whole entry): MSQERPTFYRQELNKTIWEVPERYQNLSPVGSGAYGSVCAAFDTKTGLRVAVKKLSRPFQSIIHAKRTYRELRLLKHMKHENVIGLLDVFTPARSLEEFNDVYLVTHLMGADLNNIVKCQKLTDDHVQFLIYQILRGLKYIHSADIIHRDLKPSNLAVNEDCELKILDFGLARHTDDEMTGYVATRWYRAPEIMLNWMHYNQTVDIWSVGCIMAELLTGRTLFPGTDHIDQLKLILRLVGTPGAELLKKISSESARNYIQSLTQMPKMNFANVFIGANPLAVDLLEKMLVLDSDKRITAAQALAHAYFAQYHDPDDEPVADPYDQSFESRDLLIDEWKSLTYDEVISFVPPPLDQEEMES

Brugia malayi [5] = assay: Antifilarial activity against Brugia malayi microfilaria assessed as increase in copper-induced reduction in parasite motility at 0.1 to 1 uM measured daily for 5 days; type: functional, organism-based
Brugia malayi [6] = assay: Antifilarial activity against adult Brugia malayi assessed as increase in copper-induced reduction in parasite motility at 0.1 to 1 uM measured daily for 5 days; type: functional, organism-based
[7] = Stability in human microsomes assessed as parent compound remaining after 1 hr; type: ADME, Microsome; conditions: read-out: Stability
[8] = Stability in mouse microsomes assessed as parent compound remaining after 1 hr; type: ADME, Microsome; conditions: read-out: Stability
CYP3A4 = CYP3A4 (Homo sapiens, UniProt P08684); assay: Inhibition of CYP3A4 (unknown origin) at 5 uM relative to control; type: ADME
Sequence of CYP3A4 (P08684 whole entry): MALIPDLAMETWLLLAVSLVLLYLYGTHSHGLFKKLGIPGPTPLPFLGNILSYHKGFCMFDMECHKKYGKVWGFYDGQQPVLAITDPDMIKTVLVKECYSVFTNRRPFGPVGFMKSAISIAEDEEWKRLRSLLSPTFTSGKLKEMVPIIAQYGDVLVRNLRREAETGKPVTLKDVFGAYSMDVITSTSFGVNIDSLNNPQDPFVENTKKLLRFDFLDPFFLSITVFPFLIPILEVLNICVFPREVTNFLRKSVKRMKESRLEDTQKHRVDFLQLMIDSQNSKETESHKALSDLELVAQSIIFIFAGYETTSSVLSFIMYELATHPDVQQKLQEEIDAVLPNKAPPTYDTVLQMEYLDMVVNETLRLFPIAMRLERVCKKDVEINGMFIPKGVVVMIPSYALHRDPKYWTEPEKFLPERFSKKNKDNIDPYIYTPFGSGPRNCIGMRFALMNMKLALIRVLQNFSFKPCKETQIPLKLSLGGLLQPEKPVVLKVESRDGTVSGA

CYP2C9 = CYP2C9 (Homo sapiens, UniProt P11712); assay: Inhibition of CYP2C9 (unknown origin) at 5 uM relative to control; type: ADME
Sequence of CYP2C9 (P11712 whole entry): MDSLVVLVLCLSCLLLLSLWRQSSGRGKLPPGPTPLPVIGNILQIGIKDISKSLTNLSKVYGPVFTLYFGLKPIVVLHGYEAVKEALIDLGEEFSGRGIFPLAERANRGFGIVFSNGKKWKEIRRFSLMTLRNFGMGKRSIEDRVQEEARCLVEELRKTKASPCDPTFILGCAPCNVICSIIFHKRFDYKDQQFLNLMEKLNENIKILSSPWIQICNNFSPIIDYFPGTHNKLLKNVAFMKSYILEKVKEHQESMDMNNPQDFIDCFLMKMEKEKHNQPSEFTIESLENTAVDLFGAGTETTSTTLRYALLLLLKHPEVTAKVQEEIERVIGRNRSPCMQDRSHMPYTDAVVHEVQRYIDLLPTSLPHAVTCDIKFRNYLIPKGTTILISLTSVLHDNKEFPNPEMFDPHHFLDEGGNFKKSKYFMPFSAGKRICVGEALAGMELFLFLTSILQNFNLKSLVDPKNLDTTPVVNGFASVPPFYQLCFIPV

CYP2D6 = CYP2D6 (Homo sapiens, UniProt P10635); assay: Inhibition of CYP2D6 (unknown origin) at 5 uM relative to control; type: ADME
Sequence of CYP2D6 (P10635 whole entry): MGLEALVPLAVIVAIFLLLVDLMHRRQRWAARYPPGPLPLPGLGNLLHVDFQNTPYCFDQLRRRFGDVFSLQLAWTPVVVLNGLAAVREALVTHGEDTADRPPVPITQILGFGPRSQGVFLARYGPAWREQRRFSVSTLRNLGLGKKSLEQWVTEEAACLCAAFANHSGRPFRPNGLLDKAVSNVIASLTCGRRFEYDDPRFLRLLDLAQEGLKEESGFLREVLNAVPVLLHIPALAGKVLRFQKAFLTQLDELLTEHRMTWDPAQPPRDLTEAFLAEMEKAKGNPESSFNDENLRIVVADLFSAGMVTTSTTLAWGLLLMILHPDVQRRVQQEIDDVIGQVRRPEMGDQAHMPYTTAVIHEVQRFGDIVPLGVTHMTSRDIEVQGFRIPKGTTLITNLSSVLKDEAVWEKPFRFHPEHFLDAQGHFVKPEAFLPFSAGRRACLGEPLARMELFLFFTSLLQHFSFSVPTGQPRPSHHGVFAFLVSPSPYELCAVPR

CYP2C19 = CYP2C19 (Homo sapiens, UniProt P33261); assay: Inhibition of CYP2C19 (unknown origin) at 5 uM relative to control; type: ADME
Sequence of CYP2C19 (P33261 whole entry): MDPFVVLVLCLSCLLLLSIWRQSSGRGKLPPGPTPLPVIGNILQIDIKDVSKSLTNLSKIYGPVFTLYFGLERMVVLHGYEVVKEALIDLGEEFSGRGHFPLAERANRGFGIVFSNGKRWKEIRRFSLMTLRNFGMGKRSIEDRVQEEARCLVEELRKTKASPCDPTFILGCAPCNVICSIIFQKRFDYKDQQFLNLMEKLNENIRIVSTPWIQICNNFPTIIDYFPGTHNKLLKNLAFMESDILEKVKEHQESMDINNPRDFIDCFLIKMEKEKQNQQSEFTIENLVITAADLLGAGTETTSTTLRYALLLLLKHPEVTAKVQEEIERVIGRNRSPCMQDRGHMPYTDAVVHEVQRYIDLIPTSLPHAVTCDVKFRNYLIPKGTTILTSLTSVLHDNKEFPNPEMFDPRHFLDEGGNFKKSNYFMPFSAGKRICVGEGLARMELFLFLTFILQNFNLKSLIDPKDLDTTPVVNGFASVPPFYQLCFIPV

CYP1A2 = target: T1, CYP1A2 (Homo sapiens, UniProt P05177); assay: Inhibition of CYP1A2 (unknown origin) at 5 uM relative to control; type: ADME
T1 sequence (P05177 whole entry): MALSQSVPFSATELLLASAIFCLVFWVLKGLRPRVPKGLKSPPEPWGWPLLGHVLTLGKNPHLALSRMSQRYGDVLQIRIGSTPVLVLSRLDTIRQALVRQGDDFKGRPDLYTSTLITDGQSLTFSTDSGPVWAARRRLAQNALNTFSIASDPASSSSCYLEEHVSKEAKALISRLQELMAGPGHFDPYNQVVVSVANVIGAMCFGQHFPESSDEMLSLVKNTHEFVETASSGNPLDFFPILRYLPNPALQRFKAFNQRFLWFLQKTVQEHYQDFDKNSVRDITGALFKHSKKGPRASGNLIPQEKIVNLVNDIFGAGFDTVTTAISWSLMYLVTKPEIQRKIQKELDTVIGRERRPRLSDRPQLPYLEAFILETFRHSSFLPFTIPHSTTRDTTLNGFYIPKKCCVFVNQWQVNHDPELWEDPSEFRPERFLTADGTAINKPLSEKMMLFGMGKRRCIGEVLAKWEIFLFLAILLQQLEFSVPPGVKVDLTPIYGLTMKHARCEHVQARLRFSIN

[9] = Cmax in mouse at 30 mg/kg, po; type: ADME, organism-based; design: dose 30 mg/kg, route oral; conditions: in vivo
[10] = Tmax in mouse at 30 mg/kg, po; type: ADME, organism-based; conditions: in vivo
[11] = AUC in mouse at 30 mg/kg, po; type: ADME, organism-based; conditions: in vivo
Mus musculus = assay: Time at which plasma concentration stays above in vitro IC50 for Brugia malayi MPK1a in mouse at 30 mg/kg, po; type: ADME, organism-based; conditions: in vivo
[12] = Protein binding in mouse plasma; type: ADME, cell-free; conditions: read-out: PPB (converted)
[13] = Ratio of unbound Cmax in mouse at 30 mg/kg, po to IC50 for Brugia malayi MPK1a; type: ADME, organism-based; conditions: in vivo
[14] = target: Mitogen-activated protein kinase 10 (Homo sapiens) (UniProt P53779); assay: Inhibition of human JNK3 FAM-EGFR-derived peptide as substrate by IMAP assay
Sequence of Mitogen-activated protein kinase 10 (Homo sapiens) (P53779 whole entry, looked up): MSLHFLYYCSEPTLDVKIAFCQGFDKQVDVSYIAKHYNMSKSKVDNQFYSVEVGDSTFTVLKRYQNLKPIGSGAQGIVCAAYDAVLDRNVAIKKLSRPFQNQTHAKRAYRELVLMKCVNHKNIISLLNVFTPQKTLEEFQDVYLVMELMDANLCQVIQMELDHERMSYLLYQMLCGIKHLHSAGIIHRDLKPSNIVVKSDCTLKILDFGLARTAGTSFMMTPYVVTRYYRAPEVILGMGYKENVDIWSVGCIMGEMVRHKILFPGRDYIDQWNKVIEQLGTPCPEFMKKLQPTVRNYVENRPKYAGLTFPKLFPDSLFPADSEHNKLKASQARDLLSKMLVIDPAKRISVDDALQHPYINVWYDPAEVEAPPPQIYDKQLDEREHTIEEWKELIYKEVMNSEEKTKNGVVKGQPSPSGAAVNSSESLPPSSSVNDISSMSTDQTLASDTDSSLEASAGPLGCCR

Row | SMILES | inhibition (Brugia malayi [1]) [%] | IC50 [2] [nM] | other results
1 | CC(=O)N1CC[C@@H](Nc2nccc(-c3c(-c4ccccc4)noc3C(F)(F)F)n2)C1 | 28 | – | –
2 | C[S+]([O-])c1ccc(-c2nc(-c3ccc(F)cc3)c(-c3ccncc3)[nH]2)cc1 (stereo unspecified) [SB-203580] | – | – | IC50 [3]: 220 nM
3 | CC(=O)N1CC[C@@H](Nc2nccc(-c3c(-c4ccccn4)noc3C)n2)C1 | 7 | – | –
4 | Cc1ccc(-n2nc(C(C)(C)C)cc2NC(=O)Nc2ccc(OCCN3CCOCC3)c3ccccc23)cc1 [DORAMAPIMOD] | – | – | IC50 [3]: 140 nM
5 | Cc1onc(-c2ccccc2)c1-c1ccnc(NC2CCN(C(=O)OC(C)(C)C)CC2)n1 | 0 | – | –
6 | OCCC#Cc1nc(-c2ccc(F)cc2)c(-c2ccncc2)n1CCCc1ccccc1 [RWJ-67657] | – | – | IC50 [3]: 120 nM
7 | CC(=O)N1CC[C@@H](Nc2nccc(-c3c(-c4cccnc4)noc3C)n2)C1 | 3 | – | –
8 | Cc1onc(-c2ccccc2)c1-c1ccnc(NCCNC(=O)OC(C)(C)C)n1 | 0 | – | –
9 | Cc1onc(-c2ccccc2)c1-c1ccnc(N[C@H]2CC[C@@H](NC(=O)OC(C)(C)C)CC2)n1 | 90 | 94 | –
10 | Cc1onc(-c2ccccc2)c1-c1ccnc(NC2CCCN(C(=O)OC(C)(C)C)C2)n1 (racemic) | 45 | – | –
11 | CC(=O)N[C@H]1CC[C@H](Nc2nccc(-c3c(-c4ccccc4)noc3C)n2)CC1 | 93 | 24 | IC50 [4]: 26 nM; Activity (Brugia malayi [5]): Active; Activity (Brugia malayi [6]): Active; remaining at 1 h [7]: 89%; remaining at 1 h [8]: 89%; inhibition at 5 µM (CYP3A4): 51%; inhibition at 5 µM (CYP2C9): 59%; inhibition at 5 µM (CYP2D6): 32%; inhibition at 5 µM (CYP2C19): 76%; inhibition at 5 µM (CYP1A2): 29%; Cmax [9]: 2960 nM; Tmax [10]: 30 min; AUC [11]: 5.3 µM·h; Time (Mus musculus): 8 h; fraction unbound [12]: 0.08; Ratio [13]: 10; IC50 [14]: 170 nM

Second part, led by results:

Row | inhibition (Brugia malayi [1]) [%] | IC50 [2] [nM] | SMILES | other results
12 | 12 | – | Cc1onc(-c2ccccc2)c1-c1ccnc(N[C@@H]2CCN(C(=O)c3ccccc3)C2)n1 | –
13 | 0 | 360 | Cc1onc(-c2ccccc2)c1-c1ccnc(N[C@H]2CCN(C(=O)OC(C)(C)C)C2)n1 | –
14 | 87 | 130 | CC(=O)N1CC[C@@H](Nc2nccc(-c3c(-c4ccccc4)noc3C)n2)C1 | –
15 | 44 | – | Cc1onc(-c2ccccc2)c1-c1ccnc(N[C@@H]2CCN(S(=O)(=O)c3ccccc3)C2)n1 | –
16 | 64 | 700 | Cc1onc(-c2ccccc2)c1-c1ccnc(N[C@@H]2CCNC2)n1 | –
17 | 83 | 200 | Cc1onc(-c2ccccc2)c1-c1ccnc(N[C@H]2CC[C@H](NC(=O)OC(C)(C)C)CC2)n1 | –
18 | 70 | 520 | Cc1onc(-c2ccccc2)c1-c1ccnc(N[C@@H]2CCN(S(C)(=O)=O)C2)n1 | –
19 | 91 | 94 | CC(=O)N[C@H]1CC[C@@H](Nc2nccc(-c3c(-c4ccccc4)noc3C)n2)CC1 | –
20 | 45 | – | Cc1onc(-c2ccccc2)c1-c1ccnc(NCCCNC(=O)OC(C)(C)C)n1 | –
21 | 78 | – | Cc1onc(-c2ccccc2)c1-c1ccnc(N[C@@H]2CCN(C(=O)OC(C)(C)C)C2)n1 | –
